In ChEMBL document CHEMBL5154818, “Development of oxoisoaporphine derivatives with topoisomerase I inhibition and reversal of multidrug resistance in breast cancer MCF-7/ADR cells” (Eur J Med Chem, 2022):
Active and inactive are the calls of the source. No cut-off for these calls is given here.

Assays:
[1] = molecular target: T1, DNA topoisomerase 1 (Homo sapiens) (UniProt P11387); test: Inhibition of human DNA topoisomerase 1 assessed as reduction in pBR322 DNA relaxation at 50 to 100 uM measured by gel electrophoresis method; conditions: dose 50-100 µM
T1 sequence (whole entry): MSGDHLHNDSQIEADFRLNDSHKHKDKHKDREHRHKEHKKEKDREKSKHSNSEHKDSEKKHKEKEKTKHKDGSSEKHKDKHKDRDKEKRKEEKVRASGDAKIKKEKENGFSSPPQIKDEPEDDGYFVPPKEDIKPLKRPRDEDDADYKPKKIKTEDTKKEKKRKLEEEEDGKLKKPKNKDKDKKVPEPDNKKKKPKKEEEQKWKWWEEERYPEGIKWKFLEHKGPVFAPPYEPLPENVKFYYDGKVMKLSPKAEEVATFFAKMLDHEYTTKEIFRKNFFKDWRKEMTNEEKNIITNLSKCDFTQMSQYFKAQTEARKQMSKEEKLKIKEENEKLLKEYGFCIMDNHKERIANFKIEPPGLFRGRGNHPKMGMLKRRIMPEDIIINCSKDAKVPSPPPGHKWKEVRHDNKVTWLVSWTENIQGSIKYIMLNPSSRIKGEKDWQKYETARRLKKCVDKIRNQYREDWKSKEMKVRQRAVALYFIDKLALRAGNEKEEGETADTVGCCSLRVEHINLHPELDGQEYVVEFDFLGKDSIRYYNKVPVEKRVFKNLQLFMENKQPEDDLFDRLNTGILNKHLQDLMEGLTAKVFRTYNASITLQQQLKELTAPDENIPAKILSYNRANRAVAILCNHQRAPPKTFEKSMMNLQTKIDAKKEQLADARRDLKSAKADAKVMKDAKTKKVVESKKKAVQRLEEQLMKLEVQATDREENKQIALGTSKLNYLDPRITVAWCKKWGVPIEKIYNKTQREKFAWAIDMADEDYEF

[2] = Toxicity in BALB/c nude mouse xenografted with human MCF7 cells assessed as spleen tissue damage at 1 to 10 mg/kg, ip administered 3 times a week for 3 weeks; format: organism-based; conditions: in vivo, 504 h, dose 1-10 mg/kg
NCI/ADR-RES [3] = test: Induction of apoptosis in human MCF7/ADR cells assessed as increase in apoptotic rate at 2 to 8 uM measured after 48 hrs by Annexin V-FITC/propidium iodide staining based flow cytometry analysis; format: functional; conditions: dose 2-8 µM
Calf thymus DNA = test: Binding affinity to calf thymus DNA assessed as red shift in absorption spectra at 20 uM by UV-vis absorption spectroscopy; format: nucleic-acid assay; conditions: Bos taurus
MCF7 [4] = test: Induction of cell cycle arrest in human MCF7 cells assessed accumulation of cells at G1 phase at 8 uM measured after 48 hrs by propidium iodide staining based flow cytometric analysis (reference value: 45.94%); format: functional
NCI/ADR-RES [5] = test: Induction of apoptosis in human MCF7/ADR cells assessed as increase intracellular ROS level at 0.1 uM measured by DCFH-DA dye based flow cytometric analysis; format: functional, cell-based
MCF7 [6] = test: Induction of cell cycle arrest in human MCF7 cells assessed accumulation of cells at S phase at 2 uM measured after 48 hrs by propidium iodide staining based flow cytometric analysis (reference value: 27.53%); format: functional
MCF7 [7] = test: Induction of apoptosis in human MCF7 cells assessed as increase in cleaved caspase-3 expression 1.5 to 6 uM incubated for 24 hrs by Western blotting analysis; format: functional, cell-based; conditions: dose 1.5-6 µM
NCI/ADR-RES [8] = test: Induction of apoptosis in human MCF7/ADR cells assessed as decrease in Bcl-2 expression at 5 to 20 uM measured after 24 hrs by Western blotting analysis; format: functional, cell-based; conditions: dose 5-20 µM

With `CC1CCCCN1CCOc1ccc2c3c(nccc13)-c1ccccc1C2=O` (centres undefined) the inhibition [1] was “Active”, the Activity [2] was “Non-Toxic” and the Activity (NCI/ADR-RES [3]) was 15.2%. The OD (Calf thymus DNA) was 2.2 nm, the Activity (MCF7 [4]) was 53.27% and the Activity (NCI/ADR-RES [5]) was “Active”. The Activity (MCF7 [6]) was 25.72%, the Activity (MCF7 [7]) was “Active” and the Activity (NCI/ADR-RES [8]) was “Active”.
